pIC50: −log10 of the molar value.
Legend:
[1] = system: CDK8 (phosphorylation of STAT1 at serine 727 in A549 cells); test: Cell based Phospho-STAT1 assay (IFNγ-stimulated A549 cells, AlphaLISA); details: Homo sapiens, A549, A549 cells, phospho-STAT1 after IFNγ stimulation
Method in brief: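 A549 cells given serial compound dilutions for 1 h at 37 °C, then stimulated with IFNγ at 10 ng/mL final for 30 min. Lysate STAT1 Ser727 phosphorylation measured by AlphaLISA; % inhibition vs stimulated/unstimulated DMSO controls, IC50 by nonlinear regression.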

[2] = system: CDK8 (TCF/LEF luciferase reporter in HCT116 cells); test: Cell based TCF/LEF reporter assay (HCT116+TCF/LEF luciferase); details: Homo sapiens, HCT-116, 24 h
Method in brief: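 HCT116 cells stably carrying a TCF/LEF-luciferase reporter (endogenous mutant β-catenin), seeded overnight, then exposed to serial compound dilutions for 24 h at 37 °C. Luminescence normalized to CellTiter-Fluor viability signal. % inhibition relative to DMSO and 10 uM CCT251545 controls, with IC50 from nonlinear regression.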

Compound	pIC50 [1]	pIC50 [2]
N#CC1CCC(c2nccn3ncc(-c4ccc5c(cnn5C5CCCCO5)c4)c23)CC1 (stereo not shown) [Compound P-0109, 4-(3-(1-(tetrahydro-2H-pyran-2-yl)-1H-indazol-5-yl)pyrazolo[1,5-a]pyrazin-4-yl)cyclohexane-1-carbonitrile]	7.00 to 10.00	6.00 to 7.00
CC(C)(O)Cn1cc(-c2ccc(-c3cnn4ccnc(C#CC(C)(C)C(N)=O)c34)cc2)cn1 [Compound P-0110, 4-(3-(4-(1-(2-hydroxy-2-methylpropyl)-1H-pyrazol-4-yl)phenyl)pyrazolo[1,5-a]pyrazin-4-yl)-2,2-dimethylbut-3-ynamide]	7.00 to 10.00	7.00 to 10.00
CC(C)(O)Cn1ncc2cc(-c3cnn4ccnc(C5=CCC(C#N)CC5)c34)ccc21 (stereo not shown) [Compound P-0111, 4-(3-(1-(2-hydroxy-2-methylpropyl)-1H-indazol-5-yl)pyrazolo[1,5-a]pyrazin-4-yl)cyclohex-3-ene-1-carbonitrile]	7.00 to 10.00	7.00 to 10.00
CC(C)(O)Cn1cc2cc(-c3cnc4[nH]ccc4c3C3=CCC(C#N)CC3)ccc2n1 (stereo not shown) [Compound P-0112, 4-(5-(2-(2-hydroxy-2-methylpropyl)-2H-indazol-5-yl)-1H-pyrrolo[2,3-b]pyridin-4-yl)cyclohex-3-ene-1-carbonitrile]	7.00 to 10.00	6.00 to 7.00
CC(C)(O)Cn1ncc2cc(-c3cnc4[nH]ccc4c3C3=CCC(C#N)CC3)ccc21 (stereo not shown) [Compound P-0113]	7.00 to 10.00	7.00 to 10.00
N#CC1CC=C(c2nccn3ncc(-c4ccc5c(cnn5C(F)F)c4)c23)CC1 (stereo not shown) [Compound P-0114, 4-(3-(1-(difluoromethyl)-1H-indazol-5-yl)pyrazolo[1,5-a]pyrazin-4-yl)cyclohex-3-ene-1-carbonitrile]	7.00 to 10.00	7.00 to 10.00
CC(C)(C#Cc1nccn2ncc(-c3ccc4cc(NS(C)(=O)=O)ccc4c3)c12)C(N)=O [Compound P-0115, 2,2-dimethyl-4-(3-(6-(methylsulfonamido)naphthalen-2-yl)pyrazolo[1,5-a]pyrazin-4-yl)but-3-ynamide]	7.00 to 10.00	7.00 to 10.00
N#CC1CC=C(c2nccn3ncc(-c4ccc(-c5cnn(CC(=O)O)c5)c(F)c4)c23)CC1 (stereo not shown) [Compound P-0116, 2-(4-(4-(4-(4-cyanocyclohex-1-en-1-yl)pyrazolo[1,5-a]pyrazin-3-yl)-2-fluorophenyl)-1H-pyrazol-1-yl)acetic acid]	6.00 to 7.00	6.00 to 7.00
COc1ccc2cc(-c3cnn4ccnc(C#CC(C)(C)C(N)=O)c34)ccc2n1 [Compound P-0117, 4-[3-(2-methoxy-6-quinolyl)pyrazolo[1,5-a]pyrazin-4-yl]-2,2-dimethyl-but-3-ynamide]	7.00 to 10.00	7.00 to 10.00
Cc1ccc2cc(-c3cnn4ccnc(C#CC(C)(C)C(N)=O)c34)ccc2n1 [Compound P-0118, 2,2-dimethyl-4-(3-(2-methylquinolin-6-yl)pyrazolo[1,5-a]pyrazin-4-yl)but-3-ynamide]	7.00 to 10.00	7.00 to 10.00
N#CC1CC=C(c2cccn3ncc(-c4ccc5cncnc5c4)c23)CC1 (stereo not shown) [Compound P-0119, 4-(3-(quinazolin-7-yl)pyrazolo[1,5-a]pyridin-4-yl)cyclohex-3-ene-1-carbonitrile]	7.00 to 10.00	6.00 to 7.00
N#CC1CC=C(c2cccn3ncc(-c4ccc(CN5CCOCC5)c(F)c4)c23)CC1 (stereo not shown) [Compound P-0120, 4-(3-(3-fluoro-4-(morpholinomethyl)phenyl)pyrazolo[1,5-a]pyridin-4-yl)cyclohex-3-ene-1-carbonitrile]	7.00 to 10.00	6.00 to 7.00
N#CC1CC=C(c2cccn3ncc(-c4cc5ccccc5s4)c23)CC1 (stereo not shown) [Compound P-0121, 4-(3-(benzo[b]thiophen-2-yl)pyrazolo[1,5-a]pyridin-4-yl)cyclohex-3-ene-1-carbonitrile]	7.00 to 10.00	7.00 to 10.00
N#CC1CC=C(c2cccn3ncc(-c4ccc5nccnc5c4)c23)CC1 (stereo not shown) [Compound P-0122, 4-(3-(quinoxalin-6-yl)pyrazolo[1,5-a]pyridin-4-yl)cyclohex-3-ene-1-carbonitrile]	7.00 to 10.00	7.00 to 10.00
COC(=O)c1ccc(-c2cnn3cccc(C4=CCC(C#N)CC4)c23)cc1C (stereo not shown) [Compound P-0123, methyl 4-(4-(4-cyanocyclohex-1-en-1-yl)pyrazolo[1,5-a]pyridin-3-yl)-2-methylbenzoate]	7.00 to 10.00	7.00 to 10.00
N#CC1CC=C(c2cccn3ncc(-c4ccc5cccnc5c4)c23)CC1 (stereo not shown) [Compound P-0124, 4-(3-(quinolin-7-yl)pyrazolo[1,5-a]pyridin-4-yl)cyclohex-3-ene-1-carbonitrile]	7.00 to 10.00	6.00 to 7.00

Compound	pIC50 [1]	pIC50 [2]
N#CC1CC=C(c2cccn3ncc(-c4ccc(N5CCOCC5)c(F)c4)c23)CC1 (stereo not shown) [Compound P-0125, 4-(3-(3-fluoro-4-morpholinophenyl)pyrazolo[1,5-a]pyridin-4-yl)cyclohex-3-ene-1-carbonitrile]	7.00 to 10.00	7.00 to 10.00
CS(=O)(=O)c1ccc(-c2cnn3cccc(C4=CCC(C#N)CC4)c23)cc1F (stereo not shown) [Compound P-0126, 4-(3-(3-fluoro-4-(methyl-sulfonyl)phenyl)pyrazolo[1,5-a]pyridin-4-yl)cyclohex-3-ene-1-carbonitrile]	7.00 to 10.00	6.00 to 7.00
N#CC1CC=C(c2cccn3ncc(-c4ccc5ncccc5c4)c23)CC1 (stereo not shown) [Compound P-0127, 4-(3-(quinolin-6-yl)pyrazolo[1,5-a]pyridin-4-yl)cyclohex-3-ene-1-carbonitrile]	7.00 to 10.00	7.00 to 10.00
N#CC1CC=C(c2cccn3ncc(-c4ccc(OCC(O)CN5CCCCC5)cc4)c23)CC1 (stereo not shown) [Compound P-0128, 4-(3-(4-(2-hydroxy-3-(piperidin-1-yl)propoxy)phenyl)pyrazolo[1,5-a]pyridin-4-yl)cyclohex-3-ene-1-carbonitrile]	7.00 to 10.00	7.00 to 10.00
NC(=O)C1CC=C(c2nccn3ncc(-c4ccc(OCCN5CCOCC5)cc4)c23)CC1 (stereo not shown) [Compound P-0129, 4-(3-(4-(2-morpholino-ethoxy)phenyl)pyrazolo[1,5-a]pyrazin-4-yl)cyclohex-3-ene-1-carboxamide]	7.00 to 10.00	7.00 to 10.00
N#CC1CC=C(c2nccn3ncc(-c4ccc(OCCCN5CCOCC5)cc4)c23)CC1 (stereo not shown) [Compound P-0130, 4-[3-[4-(3-morpholinopropoxy)phenyl]pyrazolo[1,5-a]pyrazin-4-yl]cyclohex-3-ene-1-carbonitrile]	7.00 to 10.00	7.00 to 10.00
Cc1ccc2cc(-c3cnc4[nH]ccc4c3C#CC(C)(C)C(N)=O)ccc2n1 [Compound P-0131, 2,2-dimethyl-4-(5-(2-methylquinolin-6-yl)-1H-pyrrolo[2,3-b]pyridin-4-yl)but-3-ynamide]	6.00 to 7.00	5.00 to 6.00
CC(C)(O)Cn1cc(-c2ccc(-c3cnc4[nH]ccc4c3C3=CCC(C#N)CC3)cc2F)cn1 (stereo not shown) [Compound P-0132, 4-(5-(3-fluoro-4-(1-(2-hydroxy-2-methylpropyl)-1H-pyrazol-4-yl)phenyl)-1H-pyrrolo[2,3-b]pyridin-4-yl)cyclohex-3-ene-1-carbonitrile]	7.00 to 10.00	7.00 to 10.00
CC(C)(O)Cn1cc(-c2ccc(-c3cnc4[nH]ccc4c3C#CC(C)(C)C(N)=O)cc2)cn1 [Compound P-0133, 4-[5-[4-[1-(2-hydroxy-2-methyl-propyl)pyrazol-4-yl]phenyl]-1H-pyrrolo[2,3-b]pyridin-4-yl]-2,2-dimethyl-but-3-ynamide]	6.00 to 7.00	6.00 to 7.00
CC(C)(O)Cn1cc(-c2ccc(-c3cnc4[nH]ccc4c3C3=CCC(C(N)=O)CC3)cc2F)cn1 (stereo not shown) [Compound P-0134, 4-(5-(3-fluoro-4-(1-(2-hydroxy-2-methylpropyl)-1H-pyrazol-4-yl)phenyl)-1H-pyrrolo[2,3-b]pyridin-4-yl)cyclohex-3-ene-1-carboxamide]	6.00 to 7.00	7.00 to 10.00
O=C1NCCC12CCN(c1cccn3ncc(-c4ccc(OCCN5CCOCC5)cc4)c13)CC2 [Compound P-0135, 8-(3-(4-(2-morpholino-ethoxy)phenyl)pyrazolo[1,5-a]pyridin-4-yl)-2,8-diazaspiro[4.5]decan-1-one]	6.00 to 7.00	6.00 to 7.00
Cn1ncc2cc(-c3cnn4ccnc(C5=CCC(C(N)=O)CC5)c34)ccc21 (stereo not shown) [Compound P-0136, 4-(3-(1-methyl-1H-indazol-5-yl)pyrazolo[1,5-a]pyrazin-4-yl)cyclohex-3-ene-1-carboxamide]	7.00 to 10.00	7.00 to 10.00
COc1ccc(-c2cnn3cccc(C4CCC(C#N)CC4)c23)cc1 (stereo not shown) [Compound P-0137, 4-(3-(4-methoxyphenyl)pyrazolo[1,5-a]pyridin-4-yl)cyclohexane-1-carbonitrile]	7.00 to 10.00	7.00 to 10.00
N#CC1CCC(c2cccn3ncc(-c4ccc(NCCN5CCOCC5)nc4)c23)CC1 (stereo not shown) [Compound P-0138, 4-(3-(6-((2-morpholinoethyl)amino)pyridin-3-yl)pyrazolo[1,5-a]pyridin-4-yl)cyclohexane-1-carbonitrile]	7.00 to 10.00	7.00 to 10.00
N#CC1CCC(c2cccn3ncc(-c4ccc(F)cc4)c23)CC1 (stereo not shown) [Compound P-0139, 4-(3-(4-fluorophenyl)pyrazolo[1,5-a]pyridin-4-yl)cyclohexane-1-carbonitrile]	7.00 to 10.00	7.00 to 10.00
Cc1nnc(-c2ccc(-c3cnn4cccc(C5CCC(C#N)CC5)c34)cc2)o1 (stereo not shown) [Compound P-0140, 4-(3-(4-(5-methyl-1,3,4-oxadiazol-2-yl)phenyl)pyrazolo[1,5-a]pyridin-4-yl)cyclohexane-1-carbonitrile]	7.00 to 10.00	7.00 to 10.00
